Entries after “also recorded” stand apart in the source; their conditions may differ. Structures can show the parent of a compound that is named as a salt.
Columns and labels:
[1] = test system: other protein kinases; settings: cited from earlier work
[2] = test system: 3T3L1 cells; test: Lipolysis assay (glycerol release) in differentiated 3T3-L1 cells; type: cell-based; settings: cells differentiated in presence vs absence of compound
Protocol: 3T3L1 cells were differentiated as described above for 9 days. The lipolysis assay was performed according to the manufactures instructions (Abcam Lipolysis assay kit, ab185433, Abcam). Briefly, after differentiation cells were washed two times with lipolysis assay buffer. Lipolysis was stimulated using 100 nM isoproterenol for 3 h. The amount of glycerol released was measured using colorimetric intensity.

[3] = test system: MNKs; test: eIF4E phosphorylation (P-eIF4E immunoblot) in 3T3-L1 cells as read-out of MNK activity; type: cell-based; settings: for inhibition of P-eIF4E / MNK activity: immunoblot
Excerpt: Similar data obtained in three replicate experiments.
The term “MNK inhibitor” as used herein is intended to refer to any compound that reduces the biological activity of MNK1 (including reducing the biological activity of one or both of splice variants MNK1 a and MNK1b) and/or MNK2 (including reducing the biological activity of one or both of splice variants MNK2a and MNK2b), including by reducing the amount of MNK1 and/or MNK2 expressed. For example, the MNK inhibitor may be a small organic molecule (also referred to as a “small molecule” herein), a peptide antagonist, an inhibitory antibody or fragment thereof, an interfering nucleotide molecule, an aptamer or other MNK inhibitor that inhibits the expression or biological activity as would be understood by those skilled in the art. The biological activity of MNK1 and MNK2 can be measured in a variety of ways, for example, by measuring phosphorylation of its substrate eIF4E to P-eIF4E using any suitable method known to those skilled in the art, for example, by performing an immunoblot or ELISA utilising a specific anti-P-eIF4E antibody, for example, the anti-phospho eIF4E (Ser209) antibody distributed by Merck Millipore, Catalogue No. 07-823 (Merck Millipore, Billerica, Mass., United States of America). […] Those skilled in the art will be aware of how to conduct suitable controls when measuring P-eIF4E levels. The MNK1 and/or MNK2 bioactivity can otherwise be measured using a cellular assay that can detect levels of MNK1 and/or MNK2 bioactivity. Antibodies that specifically detect phosphorylated MNK could also be used, for example, anti-P-MNK1 (Phospho-Mnk1 (Thr197/202) Antibody #2111; Cell Signaling Technology Inc, Danvers, Mass., United States of America). Additionally, those skilled in the art will appreciate that the MNK inhibitors should be safe for use for its intended purpose.
Tissues were harvested in RIPA lysis buffer containing 50 mM TrisHCl, pH 7.4, 150 mM NaCl, 1% Triton X-100, 0.1% sodium deoxycholate, 0.1% sodium dodecyl sulfate, 1 mM ethylenediaminetetraaacteic acid (EDTA), 50 mM β-glycerolphosphate, 0.5 mM NaVO3, 0.1% 2-mercaptoethanol and protease inhibitors (Roche). After lysis, insoluble material was removed by centrifugation at 12,000 g for 10 min at 4° C. Protein content was determined by the Bradford protein assay (Bio-Rad). Immunoblotting was performed as described in Liu et al. (2014). Blots were visualised using a LI-COR Odyssey® Quantitative Imaging System. Primary antibodies as indicated in Table 5 were from Cell Signaling Technologies, except for anti-P-eIF4E (Merck Millipore). Secondary antibodies were obtained from Thermo Fisher Scientific Inc. (Waltham, Mass., United States of America) and used at 1:20,000 dilution.
MNKs are the only kinases known to phosphorylate eIF4E, and accordingly, the phosphorylation of eIF4E (P-eIF4E) provides a direct read-out of MNK biological activity.
(§1) Since eIF4E is only phosphorylated by the MNKs, its phosphorylation status is a reliable read-out of intracellular MNK activity. […] MNK2 is the main MNK in 3T3-L1 cells and in adipose tissue (Moore et al., 2016). In additional studies, tests were conducted to assess the effect of the MNK-I2 inhibitor on the induction of differentiation markers in 3T3-L1 cells.

[4] = test system: 3T3-L1 cells; test: Lipid accumulation in differentiating 3T3-L1 cells (Oil Red O / triglyceride); type: cell-based; settings: 20 μM, 3T3-L1 cells differentiated 9 days
Protocol: (§2) For induction of 3T3-L1 (fibroblast) cell differentiation, pre-adipocytes were grown to 2 days post-confluence in DMEM supplemented with 10% FBS (day 0) and the medium was changed to DMEM supplemented with 10% FBS, insulin (167 nM), dexamethasone (0.5 μM), isobutylmethylxanthine (IBMX) (0.5 mM) and rosiglitazone (2 μM). After 48 h, the medium was replaced with medium containing DMEM supplemented with 10% (v/v) FBS and 167 nM insulin. On day 4, after inducing differentiation, and thereafter, the cells were cultured in DMEM with 10% FBS. The maintenance medium was changed every 48 h until the cells were utilised for experimentation (9 days from the initiation of differentiation).
Assessment of intracellular triglyceride levels was performed using Oil Red O staining as described by others (Smith et al., 1988). Briefly, on day 9 of differentiation of the 3T3-L1 cells were fixed in 10% formalin for 1 hour. […] For quantification, cells were washed extensively with water to remove unbound dye, and 1 ml isopropanol was added to the stained 6-well culture plate. After 5 min, the absorbance of the oil red extract at 510 nm was measured, with an increased absorbance indicative of an increased lipid level within the cells.
The amount of tissue-released triglyceride (TAG) was measured using a Triglyceride Quantification Kit (Abcam, ab65336).

[5] = test system: 3T3-L1 cells; test: Induction of adipogenic gene mRNAs in differentiating 3T3-L1 cells (RT-qPCR); type: cell-based
Protocol: Total RNA was isolated from tissues (frozen at the time of sampling) using Trizol reagent (Sigma-Aldrich) according to the manufacturer's instructions. RNA concentrations were determined by absorbance at 260 nm, while quality and integrity were evaluated via 260/230 and 260/280 ratios using a NanoDrop spectrophotometer (Thermo Fisher Scientific). RT-real time PCR amplification was carried out using the ImProm-II Reverse Transcription System (A3800; Promega, Madison, Wis., United States of America) with random primers following the manufacturer's protocol. Subsequently, real-time quantitative (q) PCR was performed using primer sequences described in Supplemental Table S1 of Moore CEJ et al., 2016, the content of which is hereby incorporated by reference in its entirety). The comparative CT method was used to measure the amplification of target mRNA levels compared with […] (B2M) mRNA. In FIG. 1A, the relative amount of each transcript was determined using the equation 2^−dCt, where dCt=(Ct target gene-Ct ref gene), and Ct=cycle threshold.
as §2
In order to study the role of MNK2 in adipocyte differentiation, 3T3-L1 cells were used in a similar manner to that described in Example 1. […]

[6] = biological target: T1, MNK2 (Mus musculus, UniProt Q8CDB0); test: P-eIF4E in MNK1-KO mouse embryonic fibroblasts (reports on MNK2); type: cell-based
T1 construct: endogenous in cells; host or cells: MNK1-KO mouse embryonic fibroblasts
T1 sequence (Q8CDB0 whole entry): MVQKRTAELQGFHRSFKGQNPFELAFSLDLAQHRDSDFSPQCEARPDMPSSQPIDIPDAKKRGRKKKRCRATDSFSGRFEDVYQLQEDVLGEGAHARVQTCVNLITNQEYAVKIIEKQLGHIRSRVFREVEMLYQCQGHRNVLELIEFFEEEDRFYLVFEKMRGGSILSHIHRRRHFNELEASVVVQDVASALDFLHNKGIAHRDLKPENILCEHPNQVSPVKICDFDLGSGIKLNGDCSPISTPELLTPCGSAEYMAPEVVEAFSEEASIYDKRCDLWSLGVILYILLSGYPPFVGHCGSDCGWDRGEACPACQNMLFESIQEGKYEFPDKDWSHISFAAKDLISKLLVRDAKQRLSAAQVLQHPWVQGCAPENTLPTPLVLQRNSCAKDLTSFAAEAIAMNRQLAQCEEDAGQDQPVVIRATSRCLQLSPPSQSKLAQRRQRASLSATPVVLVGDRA

[7] = biological target: T2, MNK1 (Mus musculus, UniProt O08605); test: P-eIF4E in MNK2-KO mouse embryonic fibroblasts (reports on MNK1); type: cell-based; settings: 1 h
T2 construct: endogenous in cells; host or cells: MNK2-KO mouse embryonic fibroblasts
T2 sequence (O08605 whole entry): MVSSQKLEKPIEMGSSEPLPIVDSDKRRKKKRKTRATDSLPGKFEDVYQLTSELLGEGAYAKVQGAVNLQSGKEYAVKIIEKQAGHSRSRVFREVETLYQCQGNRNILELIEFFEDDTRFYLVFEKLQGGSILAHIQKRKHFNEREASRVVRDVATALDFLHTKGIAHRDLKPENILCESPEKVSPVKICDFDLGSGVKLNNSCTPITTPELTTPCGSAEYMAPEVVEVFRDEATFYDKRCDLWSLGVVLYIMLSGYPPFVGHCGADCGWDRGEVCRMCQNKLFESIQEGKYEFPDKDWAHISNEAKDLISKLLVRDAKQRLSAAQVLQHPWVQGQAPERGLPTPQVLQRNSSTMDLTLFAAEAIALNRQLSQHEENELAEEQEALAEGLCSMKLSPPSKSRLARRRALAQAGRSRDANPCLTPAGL
Excerpt: FIG. 16 provides the results of studies conducted on mouse embryonic fibroblasts (MEFs): MNK1-KO (A) or MNK2-KO (B). […] The graphs show combined data from three experiments. *, p<0.05 vs. untreated control; ****, p<0.0001, vs. untreated control.
In some embodiments, the MNK inhibitor may preferably show selectivity and/or increased inhibitory potency to MNK2. A simple test for assessing the selectivity of an MNK inhibitor can be conducted by treating suitable cells from animals in which either MNK1 or MNK2 has been knocked out (eg mouse embryonic fibroblasts (MEFs) from MNK1-KO and MNK2-KO mice) with the MNK inhibitor. Since, in MNK1-KO MEFs, eIF4E phosphorylation depends on MNK2, and vice versa, monitoring the effect of different concentrations of an MNK inhibitor of interest on P-eIF4E levels in MNK-KO MEFs reports on the ability of that compound to inhibit MNK2 (MNK1-KO MEFs) or MNK1 (MNK2-KO MEFs).
as §1

[8] = biological target: MNK2 (Homo sapiens, UniProt Q9HBH9); settings: cited from earlier work
Sequence of MNK2 (Homo sapiens, UniProt Q9HBH9) (Q9HBH9 whole entry, species assumed): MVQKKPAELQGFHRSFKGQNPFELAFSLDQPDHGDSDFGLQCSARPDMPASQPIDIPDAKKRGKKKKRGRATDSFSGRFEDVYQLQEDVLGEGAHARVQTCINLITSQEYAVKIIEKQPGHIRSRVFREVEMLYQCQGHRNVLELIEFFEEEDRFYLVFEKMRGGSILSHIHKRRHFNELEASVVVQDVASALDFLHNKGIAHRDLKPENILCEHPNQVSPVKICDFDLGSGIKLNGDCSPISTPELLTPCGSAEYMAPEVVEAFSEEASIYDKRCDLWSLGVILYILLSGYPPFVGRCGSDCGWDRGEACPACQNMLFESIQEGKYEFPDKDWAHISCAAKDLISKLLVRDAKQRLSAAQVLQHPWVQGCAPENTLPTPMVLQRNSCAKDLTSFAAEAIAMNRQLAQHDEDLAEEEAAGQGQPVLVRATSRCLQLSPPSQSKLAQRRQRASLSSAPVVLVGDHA

[9] = biological target: MNK1 (Homo sapiens, UniProt Q9BUB5); settings: cited from earlier work
Sequence of MNK1 (Homo sapiens, UniProt Q9BUB5) (Q9BUB5 whole entry, species assumed): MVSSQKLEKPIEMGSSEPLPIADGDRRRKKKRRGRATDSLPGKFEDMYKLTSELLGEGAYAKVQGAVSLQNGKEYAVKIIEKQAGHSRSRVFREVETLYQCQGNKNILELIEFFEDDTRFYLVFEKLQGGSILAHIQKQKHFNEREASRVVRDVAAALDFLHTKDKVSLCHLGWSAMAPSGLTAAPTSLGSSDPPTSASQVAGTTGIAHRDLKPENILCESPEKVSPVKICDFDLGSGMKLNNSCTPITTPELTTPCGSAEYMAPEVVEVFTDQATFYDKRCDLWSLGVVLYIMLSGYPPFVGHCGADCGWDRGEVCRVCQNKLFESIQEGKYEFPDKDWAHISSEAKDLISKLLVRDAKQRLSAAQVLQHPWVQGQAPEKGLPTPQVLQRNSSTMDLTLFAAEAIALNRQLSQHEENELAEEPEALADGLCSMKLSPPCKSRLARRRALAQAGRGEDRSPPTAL

For `Nc1ncnc2[nH]nc(Nc3ccc(F)cc3)c12` [CGP57380, N3-(4-Fluorophenyl)-1H-pyrazolo-[3,4-d]pyrimidine-3,4-diamine], the “inhibition of other protein kinases” value [1] is listed as “inhibit other protein kinases in addition to the MNKs”, the “glycerol released in lipolysis assay” value [2] is listed as “less glycerol was released” and the “inhibition of P-eIF4E / MNK activity” value [3] is listed as “almost completely blocking MNK activity”. For the same molecule, the “accumulation of lipid (Oil Red O)” value [4] was “inhibited the accumulation of lipid; also recorded: markedly inhibited” and the “induction of adipogenic genes (PPARγ, C/EBPα, SREBP1c, GLUT4, CD36 mRNA)” value ([5]; 20 μM, day 3 and 6 of differentiation) was “substantially blocked the induction of all of these genes; also recorded: impairs the induction of key transcription factors; also recorded: inhibits the expression of the glucose and lipid transporters GLUT4 and CD36; also recorded: inhibited expression of a number of genes required for adipocyte differentiation”.
With `Cc1c(C(=O)NCCCN2CCCC2)sc2ncnc(Nc3ccc(F)cc3OC(C)C)c12` [MNK-I2] the “Comments (ability to inhibit MNKs, eIF4E phosphorylation)” value [3] was “Good activity, especially against MNK2”, the “inhibition of P-eIF4E / MNK activity” value [3] was “inhibits P-eIF4E strongly” and the “inhibition of P-eIF4E levels in MNK1-KO MEFs” value ([6]; 1 h, lowest concentration 0.1 μM) was “inhibited P-eIF4E levels almost completely at all concentrations tested”. The “selectivity for MNK2 over MNK1” value ([6]; comparison of MNK1-KO and MNK2-KO MEFs) was “selectivity of the MNK-I2 inhibitor for MNK2 over MNK1”, the “inhibition of P-eIF4E in MNK2-KO MEFs” value [7] was “weaker inhibitory effect than MNK-I1” and the “induction of adipogenic genes (Cebpα, Cebpβ, Cebpδ, Pparγ, Fas, Acc, Cd36 mRNA)” value ([5]; 3T3-L1 cells with differentiation cocktail, RT-qPCR) was “impaired the induction of all of the genes in the adipogenic programme”.
In the case of `c1cc(-c2cc(C3CCNCC3)[nH]n2)ccn1` [ETP 45835 dihydrochloride, 4-[5-(4-Piperidinyl)-1H-pyrazol-3-yl]pyridine dihydrochloride], the IC50 [8] is listed as 646 nM and the IC50 [9] is listed as 575 nM.

Reference: US20190117657A1, “METHOD OF INHIBITING HIGH FAT DIET-RELATED CONDITIONS” (South Australian Health and Medical Research Institute …, priority 2016, published 2019)
